For ten compounds, logP results are on record in the OPERA property sets (Mansouri et al. 2018).

On to `CN(Cc1cccc(C(F)(F)F)c1)N=O`, for which the logP (usually a log measure of how a compound divides between an organic and an aqueous phase) was determined as 1.99. `CN(Cc1cccc(Cl)c1)N=O` returned a log partition coefficient (logP) of 1.46.

`Cc1cccc(CN(C)N=O)c1` showed a logP of 1.96. `Cc1ccc(CN(C)N=O)cc1` displayed a logP of 2.14. Take `CN(Cc1ccccc1)N=O`: the logP was 1.55. In the case of `CN(Cc1cccc([N+](=O)[O-])c1)N=O`, the lipophilicity (logP) came to 1.17.

In turn, `CN(Cc1ccc(Cl)cc1)N=O` registered a logP of 2.19. For the compound `COc1cccc(CN(C)N=O)c1`, the logP was 1.6. As for `CN(Cc1ccc(F)cc1)N=O`, the figure is 1.67; as for `CN(Cc1ccc([N+](=O)[O-])cc1)N=O`, 0.82.
